Holding throughout (assay type): cell-based, human
For one test, the system named is OK-CTLp or OK-CTL clone. In words: Recognition of peptide-pulsed T2 cells by OK-CTLp or OK-CTL clone (IFN-γ ELISA). In general terms: In an ELISA, binding on a coated surface is turned into a signal by an enzyme label.
The test system of test [1] is peripheral blood mononuclear cells derived from a cancer patient. In words: CTL induction by peptide from autologous PBMC of cancer patient, IFN-γ production on recognition of target cells (Example 5). As to conditions: PBMC stimulated with 10 μM peptide.
For test [2] the test system is unchanged. The test is described as above. As to conditions: for Recognition of tumor cells by PBMC stimulated in vitro with peptide (IFN-γ production): SW620, CA9-22 and Panc-1 HLA-A2+ tumor cells, result in words; for IFN-γ production from peripheral blood mononuclear cells in recognition of target cells: PBMC stimulated with 10 μM peptide. The source says:
Among the peptides that were able to enhance IFN-γ production from the OK-CTLp or OK-CTL clone in Example 4, those from P1 to P19 were examined for their ability to induce CTL from peripheral blood mononuclear cells derived from a cancer patient. The method for inducing CTL by a peptide was according to the well-known method (J. Exp. Med., 187:277-288, 1998; Cancer Res., 59:4056-4063, 1999.) Specifically, autologous peripheral blood mononuclear cells (PBMC) derived from a cancer patient, from whom OK-CTLp was obtained, were incubated together with the peptide (10 μM.) The cells were re-stimulated at day 10 and 14 after the start of culturing, using autologous PBMCs as an antigen presenting cell (APC) which were pulsed with 10 μM of the same peptide for 2 h and exposed to irradiation (30 gray.) At day 21 after the start of culturing, the cells were collected to test for surface phenotype. In addition, the cells were examined for the recognition of various target cells, using IFN-γ production measured by ELISA when they were cultured together with the target cells as an indicator. As a target cells, SW620 cell, CA9-22 cell, and Panc-1 cell, which are the HLA-A2^+ tumor cells, were used.

The mark [3] stands for this setting: concentration of peptide 0.1 μM.

Regarding ELLNRYLYL [Peptide P27], the IFN-γ production in the test on OK-CTLp or OK-CTL clone (setting [3]) amounted to 352 pg/mL; in the test with OK-CTLp or OK-CTL clone (concentration of peptide 1 μM), 889 pg/mL; in the test on OK-CTLp or OK-CTL clone (concentration of peptide 10 μM) it was 250 pg/mL; in the test with OK-CTLp or OK-CTL clone (concentration of peptide 50 μM) it was 0 pg/mL.

In the case of “ILPRKHHRI (Designed peptide having an ability to activate HLA-A2 restricted Cytotoxic T lymphocytes) [Peptide P5, Gene 1 (UBE2V) 208-216]”, the “IFN-γ production from peripheral blood mononuclear cells in recognition of target cells” value (from here on “IFN-γ production … of target cells”) came to 38 pg/mL in test [1] (target COLO320 (HLA-A24/24)); 0 pg/mL in test [1] (target QG56 (HLA-A26/26)); 0 pg/mL in test [1] (target RERF-LC-MS (HLA-A11/11)); 96 pg/mL in test [2] (target CA9-22 (HLA-A0207/24)); 638 pg/mL in test [2] (target Panc-1 (HLA-A0201/11)); 500 pg/mL in test [2] (target SW620 (HLA-A0201/24)). In test [2], the “Recognition of tumor cells by PBMC stimulated in vitro with peptide (IFN-γ production)” value (shortened to “Recognition of tumor cells”) is on record as “produced IFN-γ in a significant amount”.

Consider LIMLQNALT [Peptide P28], for which the IFN-γ production in the test on OK-CTLp or OK-CTL clone (setting [3]) is 898 pg/mL; in the test with OK-CTLp or OK-CTL clone (concentration of peptide 10 μM), 0 pg/mL; in the test on OK-CTLp or OK-CTL clone (concentration of peptide 50 μM), 144 pg/mL.

On to “LIMLQNALTT (LLMLQNALTT; Designed peptide having an ability to activate HLA-A2 restricted Cytotoxic T lymphocytes) [Peptide P31, Gene 7 1358-1367]”, for which the IFN-γ production in the test with OK-CTLp or OK-CTL clone (setting [3]) worked out at 443 pg/mL; in the test on OK-CTLp or OK-CTL clone (concentration of peptide 50 μM), 314 pg/mL.

For LLLKYTEKL [Peptide P24], the IFN-γ production with OK-CTLp or OK-CTL clone (setting [3]) is 728 pg/mL; with OK-CTLp or OK-CTL clone (concentration of peptide 10 μM), 103 pg/mL; in the test with OK-CTLp or OK-CTL clone (concentration of peptide 50 μM) it was 2 pg/mL.

As for “LLLLARWEDT (Designed peptide having an ability to activate HLA-A2 restricted Cytotoxic T lymphocytes) [Peptide P2, Gene 1 (UBE2V) 64-73]”, the “IFN-γ production … of target cells” value in test [1] (target COLO320 (HLA-A24/24)) stood at 5 pg/mL; in test [1] (target QG56 (HLA-A26/26)) it was 0 pg/mL; in test [1] (target RERF-LC-MS (HLA-A11/11)), 0 pg/mL; in test [2] (target CA9-22 (HLA-A0207/24)), 0 pg/mL; in test [2] (target Panc-1 (HLA-A0201/11)), 0 pg/mL; in test [2] (target SW620 (HLA-A0201/24)) it was 53 pg/mL. In addition, in test [2], the “Recognition of tumor cells” value is “induced CTL recognizing any one of the HLA-A2^+ tumor cells”.

Consider “LLQDWHVIL (Designed peptide having an ability to activate HLA-A2 restricted Cytotoxic T lymphocytes) [Peptide P4, Gene 1 (UBE2V) 201-209]”, for which the “IFN-γ production … of target cells” value in test [1] (target COLO320 (HLA-A24/24)) came out at 0 pg/mL; in test [1] (target QG56 (HLA-A26/26)) it was 0 pg/mL; in test [1] (target RERF-LC-MS (HLA-A11/11)) it was 0 pg/mL; in test [2] (target CA9-22 (HLA-A0207/24)) it was 0 pg/mL; in test [2] (target Panc-1 (HLA-A0201/11)) it was 0 pg/mL; in test [2] (target SW620 (HLA-A0201/24)), 60 pg/mL. Besides, in test [2], the “Recognition of tumor cells” value is on record as “induced CTL recognizing any one of the HLA-A2^+ tumor cells”.

“MLPLECQYL (Designed peptide having an ability to activate HLA-A2 restricted Cytotoxic T lymphocytes) [Peptide P12, Gene 3 (WHSC2) 157-165]”: the “IFN-γ production … of target cells” value amounted to 40 pg/mL in test [1] (target COLO320 (HLA-A24/24)); 0 pg/mL in test [1] (target QG56 (HLA-A26/26)); 0 pg/mL in test [1] (target RERF-LC-MS (HLA-A11/11)); 0 pg/mL in test [2] (target CA9-22 (HLA-A0207/24)); 197 pg/mL in test [2] (target Panc-1 (HLA-A0201/11)); 46 pg/mL in test [2] (target SW620 (HLA-A0201/24)). In addition, the “Recognition of tumor cells” value in test [2] was “induced CTL recognizing any one of the HLA-A2^+ tumor cells”.

With “NVLHFFNAPL (Designed peptide having an ability to activate HLA-A2 restricted Cytotoxic T lymphocytes) [Peptide P9, Gene 2 (HNRPL) 501-510]”, the “IFN-γ production … of target cells” value was 0 pg/mL in test [1] (target COLO320 (HLA-A24/24)); 0 pg/mL in test [1] (target QG56 (HLA-A26/26)); 27 pg/mL in test [1] (target RERF-LC-MS (HLA-A11/11)); 98 pg/mL in test [2] (target CA9-22 (HLA-A0207/24)); 339 pg/mL in test [2] (target Panc-1 (HLA-A0201/11)); 194 pg/mL in test [2] (target SW620 (HLA-A0201/24)). In addition, in test [2], the “Recognition of tumor cells” value was “produced IFN-γ in a significant amount”.

“QILKGLLFL (Designed peptide having an ability to activate HLA-A2 restricted Cytotoxic T lymphocytes) [Peptide P16, Gene 5 (ppMAPkkk) 290-298]”: the “IFN-γ production … of target cells” value stood at 0 pg/mL in test [1] (target COLO320 (HLA-A24/24)); 0 pg/mL in test [1] (target QG56 (HLA-A26/26)); 0 pg/mL in test [1] (target RERF-LC-MS (HLA-A11/11)); 147 pg/mL in test [2] (target CA9-22 (HLA-A0207/24)); 113 pg/mL in test [2] (target Panc-1 (HLA-A0201/11)); 0 pg/mL in test [2] (target SW620 (HLA-A0201/24)). The “Recognition of tumor cells” value in test [2] is “induced CTL recognizing any one of the HLA-A2^+ tumor cells”.

In the case of “RIQEWCSVI (RLQEWCSVI; Designed peptide having an ability to activate HLA-A2 restricted Cytotoxic T lymphocytes) [Peptide P1, Gene 1 (UBE2V) 43-51]”, the “IFN-γ production … of target cells” value amounted to 50 pg/mL in test [1] (target COLO320 (HLA-A24/24)); 0 pg/mL in test [1] (target QG56 (HLA-A26/26)); 26 pg/mL in test [1] (target RERF-LC-MS (HLA-A11/11)); 81 pg/mL in test [2] (target CA9-22 (HLA-A0207/24)); 492 pg/mL in test [2] (target Panc-1 (HLA-A0201/11)); 235 pg/mL in test [2] (target SW620 (HLA-A0201/24)). Also, the “Recognition of tumor cells” value in test [2] was “produced IFN-γ in a significant amount”.

As to SLLYLNQSV [Peptide P20], the IFN-γ production in the test on OK-CTLp or OK-CTL clone (setting [3]) came out at 344 pg/mL; with OK-CTLp or OK-CTL clone (concentration of peptide 1 μM) it was 643 pg/mL; with OK-CTLp or OK-CTL clone (concentration of peptide 10 μM), 0 pg/mL; in the test with OK-CTLp or OK-CTL clone (concentration of peptide 50 μM), 34 pg/mL.

As for “TLLRKERGV (Designed peptide having an ability to activate HLA-A2 restricted Cytotoxic T lymphocytes) [Peptide P13, Gene 3 (WHSC2) 267-275]”, the “IFN-γ production … of target cells” value in test [1] (target COLO320 (HLA-A24/24)) was found to be 0 pg/mL; in test [1] (target QG56 (HLA-A26/26)), 0 pg/mL; in test [1] (target RERF-LC-MS (HLA-A11/11)), 15 pg/mL; in test [2] (target CA9-22 (HLA-A0207/24)) it was 95 pg/mL; in test [2] (target Panc-1 (HLA-A0201/11)), 115 pg/mL; in test [2] (target SW620 (HLA-A0201/24)), 151 pg/mL. Also, in test [2], the “Recognition of tumor cells” value was “produced IFN-γ in a significant amount”.

With TMLPHHAGL [Peptide P25], the IFN-γ production with OK-CTLp or OK-CTL clone (setting [3]) came to 69 pg/mL; in the test on OK-CTLp or OK-CTL clone (concentration of peptide 1 μM) it was 1569 pg/mL; in the test with OK-CTLp or OK-CTL clone (concentration of peptide 10 μM), 25 pg/mL; in the test on OK-CTLp or OK-CTL clone (concentration of peptide 50 μM) it was 122 pg/mL.

Consider YQLPDWRLV [Peptide P29], for which the results for the IFN-γ production in the test with OK-CTLp or OK-CTL clone (setting [3]), in the test on OK-CTLp or OK-CTL clone (concentration of peptide 10 μM) and with OK-CTLp or OK-CTL clone (concentration of peptide 50 μM) were 0 pg/mL, 86 pg/mL and 362 pg/mL, respectively.

Values taken from US7524930B2, “Tumor antigen” (Green Peptide Co., Ltd, priority 2003, dated 2009).
